{
  "source": "ChEMBL document CHEMBL3885881",
  "about": "“DrugMatrix”",
  "organism": "Rattus norvegicus",
  "format": "toxicity, organism-based, Sprague-Dawley",
  "conditions": "in vivo, sc, 24 h, route mini-PUMP - SUBCUTANEOUS, time 1 day, vehicle 100 % SALINE; for ABSOLUTE EOSINOPHIL / ABSOLUTE LYMPHOCYTE / ABSOLUTE MONOCYTE / ABSOLUTE SEGMENTED NEUTROPHIL / BASOPHIL / EOSINOPHIL / ERYTHROCYTE COUNT / HEMATOCRIT / HEMOGLOBIN / LEUKOCYTE COUNT / LYMPHOCYTE / MEAN CORPUSCULAR HEMOGLOBIN / MEAN CORPUSCULAR HEMOGLOBIN CONCENTRATION / MEAN CORPUSCULAR VOLUME / MONOCYTE / NEUTROPHIL / NUCLEATED RED BLOOD CELLS / PLATELET COUNT: tissue Blood; for ALANINE AMINOTRANSFERASE / ALBUMIN / ALKALINE PHOSPHATASE / ASPARTATE AMINOTRANSFERASE / BLOOD UREA NITROGEN / CARBON DIOXIDE / CHLORIDE / CHOLESTEROL / CREATININE / GLUCOSE / LACTATE DEHYDROGENASE / LIPASE / PHOSPHORUS / POTASSIUM / SODIUM / TOTAL BILIRUBIN / TOTAL PROTEIN / URIC ACID: tissue Plasma",
  "key": {"[1]": {"conditions": "0 mg/kg, vehicle control, dose level Control"}, "[2]": {"conditions": "[…], dose 0.44 mg/Kg, dose level High"}},
  "description": "DrugMatrix - Regimen: Single",
  "data": [
    {"smiles": "CNC[C@H](O)c1cccc(O)c1", "note": "[PHENYLEPHRINE]", "values": [
      {"measurement": "ABSOLUTE EOSINOPHIL", "setting": "[1]", "value": 26.17, "unit": "CELLS/uL"},
      {"measurement": "ABSOLUTE LYMPHOCYTE", "setting": "[1]", "value": 10985.83, "unit": "CELLS/uL"},
      {"measurement": "ABSOLUTE MONOCYTE", "setting": "[1]", "value": 234.5, "unit": "CELLS/uL"},
      {"measurement": "ABSOLUTE SEGMENTED NEUTROPHIL", "setting": "[1]", "value": 1753.5, "unit": "CELLS/uL"},
      {"measurement": "BASOPHIL", "setting": "[1]", "value": 0, "unit": "%"},
      {"measurement": "EOSINOPHIL", "setting": "[1]", "value": 0.17, "unit": "%"},
      {"measurement": "ERYTHROCYTE COUNT", "setting": "[1]", "value": 5.64, "unit": "x10E6/uL"},
      {"measurement": "HEMATOCRIT", "setting": "[1]", "value": 34.52, "unit": "%"},
      {"measurement": "HEMOGLOBIN", "setting": "[1]", "value": 12.68, "unit": "G/DL"},
      {"measurement": "LEUKOCYTE COUNT", "setting": "[1]", "value": 13, "unit": "x10E3/uL"},
      {"measurement": "LYMPHOCYTE", "setting": "[1]", "value": 84.5, "unit": "%"},
      {"measurement": "MEAN CORPUSCULAR HEMOGLOBIN", "setting": "[1]", "value": 22.5, "unit": "pg"},
      {"measurement": "MEAN CORPUSCULAR HEMOGLOBIN CONCENTRATION", "setting": "[1]", "value": 36.78, "unit": "G/DL"},
      {"measurement": "MEAN CORPUSCULAR VOLUME", "setting": "[1]", "value": 61.18, "unit": "fL"},
      {"measurement": "MONOCYTE", "setting": "[1]", "value": 1.83, "unit": "%"},
      {"measurement": "NEUTROPHIL", "setting": "[1]", "value": 13.5, "unit": "%"},
      {"measurement": "NUCLEATED RED BLOOD CELLS", "setting": "[1]", "value": "0.17 /100WBC"},
      {"measurement": "PLATELET COUNT", "setting": "[1]", "value": 679.17, "unit": "x10E3/uL"},
      {"measurement": "ALANINE AMINOTRANSFERASE", "setting": "[1]", "value": 42.67, "unit": "u/L"},
      {"measurement": "ALBUMIN", "setting": "[1]", "value": 3.77, "unit": "G/DL"},
      {"measurement": "ALKALINE PHOSPHATASE", "setting": "[1]", "value": 291.17, "unit": "u/L"},
      {"measurement": "ASPARTATE AMINOTRANSFERASE", "setting": "[1]", "value": 74.5, "unit": "u/L"},
      {"measurement": "BLOOD UREA NITROGEN", "setting": "[1]", "value": 15.33, "unit": "mg/dL"},
      {"measurement": "CARBON DIOXIDE", "setting": "[1]", "value": 30, "unit": "mmol/L"},
      {"measurement": "CHLORIDE", "setting": "[1]", "value": 100.83, "unit": "MEQ/L"},
      {"measurement": "CHOLESTEROL", "setting": "[1]", "value": 65.33, "unit": "mg/dL"},
      {"measurement": "CREATININE", "setting": "[1]", "value": 0.15, "unit": "mg/dL"},
      {"measurement": "GLUCOSE", "setting": "[1]", "value": 179.83, "unit": "mg/dL"},
      {"measurement": "LACTATE DEHYDROGENASE", "setting": "[1]", "value": 162.67, "unit": "u/L"},
      {"measurement": "LIPASE", "setting": "[1]", "value": 8.5, "unit": "u/L"},
      {"measurement": "PHOSPHORUS", "setting": "[1]", "value": 12.2, "unit": "mg/dL"},
      {"measurement": "POTASSIUM", "setting": "[1]", "value": 5.73, "unit": "MEQ/L"},
      {"measurement": "SODIUM", "setting": "[1]", "value": 144.7, "unit": "MEQ/L"},
      {"measurement": "TOTAL BILIRUBIN", "setting": "[1]", "value": 0.15, "unit": "mg/dL"},
      {"measurement": "TOTAL PROTEIN", "setting": "[1]", "value": 5.87, "unit": "G/DL"},
      {"measurement": "URIC ACID", "setting": "[1]", "value": 1.93, "unit": "mg/dL"},
      {"measurement": "ABSOLUTE EOSINOPHIL", "setting": "[2]", "value": 0, "unit": "CELLS/uL"},
      {"measurement": "ABSOLUTE LYMPHOCYTE", "setting": "[2]", "value": 12992, "unit": "CELLS/uL"},
      {"measurement": "ABSOLUTE MONOCYTE", "setting": "[2]", "value": 416.33, "unit": "CELLS/uL"},
      {"measurement": "ABSOLUTE SEGMENTED NEUTROPHIL", "setting": "[2]", "value": 3025, "unit": "CELLS/uL"},
      {"measurement": "BASOPHIL", "setting": "[2]", "value": 0, "unit": "%"},
      {"measurement": "EOSINOPHIL", "setting": "[2]", "value": 0, "unit": "%"},
      {"measurement": "ERYTHROCYTE COUNT", "setting": "[2]", "value": 6.07, "unit": "x10E6/uL"},
      {"measurement": "HEMATOCRIT", "setting": "[2]", "value": 36.37, "unit": "%"},
      {"measurement": "HEMOGLOBIN", "setting": "[2]", "value": 13.2, "unit": "G/DL"},
      {"measurement": "LEUKOCYTE COUNT", "setting": "[2]", "value": 16.43, "unit": "x10E3/uL"},
      {"measurement": "LYMPHOCYTE", "setting": "[2]", "value": 79, "unit": "%"},
      {"measurement": "MEAN CORPUSCULAR HEMOGLOBIN", "setting": "[2]", "value": 21.77, "unit": "pg"},
      {"measurement": "MEAN CORPUSCULAR HEMOGLOBIN CONCENTRATION", "setting": "[2]", "value": 36.27, "unit": "G/DL"},
      {"measurement": "MEAN CORPUSCULAR VOLUME", "setting": "[2]", "value": 59.93, "unit": "fL"},
      {"measurement": "MONOCYTE", "setting": "[2]", "value": 2.33, "unit": "%"},
      {"measurement": "NEUTROPHIL", "setting": "[2]", "value": 18.67, "unit": "%"},
      {"measurement": "NUCLEATED RED BLOOD CELLS", "setting": "[2]", "value": "0 /100WBC"},
      {"measurement": "PLATELET COUNT", "setting": "[2]", "value": 1118.67, "unit": "x10E3/uL"},
      {"measurement": "ALANINE AMINOTRANSFERASE", "setting": "[2]", "value": 37.33, "unit": "u/L"},
      {"measurement": "ALBUMIN", "setting": "[2]", "value": 3.83, "unit": "G/DL"},
      {"measurement": "ALKALINE PHOSPHATASE", "setting": "[2]", "value": 259, "unit": "u/L"},
      {"measurement": "ASPARTATE AMINOTRANSFERASE", "setting": "[2]", "value": 64.33, "unit": "u/L"},
      {"measurement": "BLOOD UREA NITROGEN", "setting": "[2]", "value": 11.67, "unit": "mg/dL"},
      {"measurement": "CARBON DIOXIDE", "setting": "[2]", "value": 30, "unit": "mmol/L"},
      {"measurement": "CHLORIDE", "setting": "[2]", "value": 101.67, "unit": "MEQ/L"},
      {"measurement": "CHOLESTEROL", "setting": "[2]", "value": 75.67, "unit": "mg/dL"},
      {"measurement": "CREATININE", "setting": "[2]", "value": 0.16, "unit": "mg/dL"},
      {"measurement": "GLUCOSE", "setting": "[2]", "value": 171.33, "unit": "mg/dL"},
      {"measurement": "LACTATE DEHYDROGENASE", "setting": "[2]", "value": 133.67, "unit": "u/L"},
      {"measurement": "LIPASE", "setting": "[2]", "value": 9, "unit": "u/L"},
      {"measurement": "PHOSPHORUS", "setting": "[2]", "value": 14.13, "unit": "mg/dL"},
      {"measurement": "POTASSIUM", "setting": "[2]", "value": 6.67, "unit": "MEQ/L"},
      {"measurement": "SODIUM", "setting": "[2]", "value": 146.87, "unit": "MEQ/L"},
      {"measurement": "TOTAL BILIRUBIN", "setting": "[2]", "value": 0.1, "unit": "mg/dL"},
      {"measurement": "TOTAL PROTEIN", "setting": "[2]", "value": 5.97, "unit": "G/DL"},
      {"measurement": "URIC ACID", "setting": "[2]", "value": 3.6, "unit": "mg/dL"}
    ]}
  ]
}
